Values quoted from earlier work in patent US10280177B2 (ALFASIGMA S.P.A., priority 2006, dated 2019).

Settings: in vivo

CO[C@H]1/C=C/O[C@@]2(C)Oc3c(C)c(O)c4c(O)c(c5c(nc6cc(C)ccn65)c4c3C2=O)NC(=O)/C(C)=C\C=C\[C@H](C)[C@H](O)[C@@H](C)[C@@H](O)[C@@H](C)[C@H](OC(C)=O)[C@@H]1C [polymorph ?, rifaximin]
reduction of bioavailability compared to the form δ: twenty
